Data on 13 compounds can be found in patent US20100022541A1, “Chemical inhibitors of bacterial heptose synthesis, methods for their preparation and biological applications of said inhibitors” (priority 2006, published 2010).

The assay deals with T1, RfaE (Escherichia coli, UniProt P76658).
T1 construct: made in house; host or cells: E. coli
Briefly: Inhibition of the enzymatic activity of RfaE (HTS luminescent or fluorescent biochemical assay). On the set-up: species or system E. coli. Conditions: for IC50: inhibitor tested at 6 to 10 concentrations, 30 min pre-incubation at room temperature. The protocol: According to another object, the invention also relates to a method for assessing RfaE enzymatic activity. • Said method comprises • pre-incubating at room temperature • DMSO or inhibitor to be tested dissolved in DMSO and RfaE in an assay buffer • and either • adding a reaction mixture composed of RfaE, β-heptose-7-phosphate, ATP, in the assay buffer and incubating at room temperature • adding a revelation mixture composed of luciferase, D-luciferin and N-acetylcysteamine • measuring the luminescence intensity and converting into inhibition % to further calculate the IC50 values; • or • adding a reaction mixture composed of RfaE, β-heptose-7-phosphate ATP, pyruvate kinase, phosphoenolpyruvate, lactate dehydrogenase and NADH in said assay buffer, • measuring the fluorescence intensity of NADH kinetically and deriving inhibition % from fitted initial velocities, to further calculate the IC50 values.
Inhibition of the Enzymatic Activity of RfaE
RfaE is a kinase belonging to the ribokinase family. It catalyses an essential step of the biosynthesis of L-ADP-Heptose, namely the phosphorylation of β-heptose-7-phosphate (H7P) into β-heptose-1,7-bisphosphate (H17P). RfaE assays as described in the literature are essentially based on direct HLPC detection of the substrates H7P and ATP, and of the products H17P and ADP, raising obvious limitations for HTS applications. The assays described below are based either on luminescent ATP detection, or on fluorescent ADP detection. They are easily amenable to miniaturized formats and fast readouts as required by HTS.
The assay buffer “AB” contains 50 mM Hepes pH7.5, 1 mM MnCl2, 25 mM KCl, 0.012% Triton-X100 and 1 mM DTT. The following components are added in a white polystyrene Costar plate up to a final volume of 31 μL: 3 μL DMSO, or inhibitor dissolved in DMSO and 28 μL RfaE in AB. After 30 min of pre-incubation at room temperature, 29 μL of Substrates mix in AB are added in each well to a final volume of 60 μL. This reaction mixture is then composed of 3 nM RfaE (produced in house from E. coli), 0.2 μM β-heptose-7-phosphate (in house synthesis) and 0.2 μM ATP (Sigma) in assay buffer. After 40 min of incubation at room temperature, 200 μL of the revelation mix are added to a final volume of 260 μL, including the following constituents at the respective final concentrations: 2 nM luciferase (Sigma), 30 μM D-luciferin (Sigma), 100 μM N-acetylcysteamine (Aldrich). Luminescence intensity is immediately measured on an Analyst-HT (Molecular Devices) and converted into inhibition percentages. For IC50 determinations, the inhibitor is tested at 6 to 10 different concentrations, and the related inhibitions are fitted to a classical langmuir equilibrium model using XLFIT (IDBS).
The assay buffer “AB” contains 50 mM Hepes pH7.5, 1 mM MnCl2, 25 mM KCl, 0.012% Triton-X100 and 1 mM DTT. The following components are added in a black polystyrene Costar plate up to a final volume of 50 μL: 5 μL DMSO, or inhibitor dissolved in DMSO and 45 μL RfaE in AB. After 30 min of pre-incubation at room temperature, 50 μL of Substrates-revelation mix in AB are added in each well to a final volume of 100 μL. This reaction mixture is then composed of 66 μM RfaE (produced in house from E. coli), 1 μM β-heptose-7-phosphate (in house synthesis), 50 μM ATP (Sigma), 5 u/mL Pyruvate Kinase (Sigma), 50 μM phosphoenolpyruvate (Sigma), 5 u/mL Lactate dehydrogenase (Sigma) and 2.5 μM NADH (Sigma) in assay buffer. Fluorescence intensity of NADH (λex=360 nm, λem=520 nm) is immediately measured kinetically by a Fluostar Optima (BMG). Inhibition percentages are derived from fitted initial velocities. For IC50 determinations, the inhibitor is tested at 6 to 10 different concentrations, and the related inhibitions are fitted to a classical langmuir equilibrium model using XLFIT (IDBS).

T1 sequence (P76658 whole entry): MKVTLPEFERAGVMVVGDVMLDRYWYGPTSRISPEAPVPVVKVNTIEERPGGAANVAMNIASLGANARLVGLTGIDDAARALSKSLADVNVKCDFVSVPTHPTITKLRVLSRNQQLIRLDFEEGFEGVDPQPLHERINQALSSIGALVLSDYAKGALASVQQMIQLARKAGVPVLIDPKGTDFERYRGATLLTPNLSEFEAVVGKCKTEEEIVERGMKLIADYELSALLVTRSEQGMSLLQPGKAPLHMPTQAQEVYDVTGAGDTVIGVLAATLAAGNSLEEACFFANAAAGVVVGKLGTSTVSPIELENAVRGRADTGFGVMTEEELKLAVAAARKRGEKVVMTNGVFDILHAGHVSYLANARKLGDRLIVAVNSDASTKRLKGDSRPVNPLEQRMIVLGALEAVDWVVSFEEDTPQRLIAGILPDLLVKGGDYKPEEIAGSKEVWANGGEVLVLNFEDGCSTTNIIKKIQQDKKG

As usually defined, the IC50 is the concentration at which inhibition is half-maximal. A high value points to weaker potency. `COc1cccc(-c2nc(C)c(C(=O)N(CC(=O)O)Cc3nc4cc(OC)ccc4s3)o2)c1` [XXX, ((5-methoxy-1,3-benzothiazol-2-ylmethyl){[2-(3-methoxyphenyl)-4-methyl-1,3-oxazol-5-yl]carbonyl}amino)acetic Acid] registered an IC50 of 1.09 µM. With `COc1cccc(-c2nc(C)c(C(=O)N(CC(=O)O)C(C)c3ccccn3)o2)c1` (centres unmarked) [XXXV, [{[2-(3-methoxyphenyl)-4-methyl-1,3-oxazol-5-yl]carbonyl}(1-pyridin-2-ylethyl)amino]acetic Acid], the IC50 worked out at 19.2 µM. In turn, `COc1cccc(-c2nc(C(=O)N(CC(=O)O)Cc3ccc4ccccc4n3)c(C)o2)c1` [XXXIV, [{[2-(3-methoxyphenyl)-5-methyl-1,3-oxazol-4-yl]carbonyl}(quinolin-2-ylmethyl)amino]acetic Acid] registered an IC50 of 12 µM.

Take `Cc1nn(-c2ccccc2)nc1C(=O)N(CC(=O)O)Cc1ccccn1` [XI, [[(5-methyl-2-phenyl-2H-1,2,3-triazol-4-yl)carbonyl](pyridin-2-ylmethyl)amino]acetic Acid]: half-maximal inhibition (IC50) was put at 48 µM. The compound `O=C(O)CN(Cc1ccccn1)C(=O)c1ccc(-c2ccccc2)o1` [VII, [(5-phenyl-2-furoyl)(pyridin-2-ylmethyl)amino]acetic Acid] registered an IC50 of 100 µM.

In turn, `Cc1nc(-c2ccc(Cl)cc2)oc1C(=O)N(CC(=O)O)Cc1ccccn1` [V, [{[2-(4-chlorophenyl)-4-methyl-1,3-oxazol-5-yl]carbonyl}(pyridin-2-ylmethyl)amino]acetic acid] gave a half-inhibitory concentration (IC50) of 54 µM. For the compound `Cc1oc(-c2ccc(C(F)(F)F)cc2)nc1C(=O)N(CC(=O)O)Cc1ccccn1` [XVI, [({5-methyl-2-[4-(trifluoromethyl)phenyl]-1,3-oxazol-4-yl}carbonyl)(pyridin-2-ylmethyl)amino]acetic Acid], the concentration for half-maximal inhibition (IC50) stood at 142 µM. `Cc1cccc(C)c1-c1nc(C)c(C(=O)N(CC(=O)O)Cc2nc3ccccc3s2)s1` [XL, ((1,3-benzothiazol-2-ylmethyl){[4-methyl-2-(2,6-dimethylphenyl)-1,3-thiazol-5-yl]carbonyl}amino)acetic Acid] returned an IC50 of 50.5 µM. Compound `Cc1nc(-c2ccccc2)oc1C(=O)N(CC(=O)O)Cc1ccc(-c2ccccc2F)o1` [XXXII, ([(4-methyl-2-phenyl-1,3-oxazol-5-yl)carbonyl]{[5-(2-fluorophenyl)-2-furyl]methyl}amino)acetic Acid] came in with an IC50 of 125 µM. The compound `Cc1oc(-c2ccccc2)cc1C(=O)N(CC(=O)O)Cc1ccccn1` [Example X, [(2-methyl-5-phenyl-3-furoyl)(pyridin-2-ylmethyl)amino]acetic Acid] came in with a half-maximal inhibitory concentration (IC50) of 42 µM. Regarding `O=C(O)CN(Cc1ccccn1)C(=O)c1nc(-c2ccccc2)oc1COCc1ccccc1` [I, {[[5-(benzyloxy)methyl-2-phenyl-1,3-oxazol-4-yl]carbonyl](pyridin-2-ylmethyl)amino}acetic Acid], the IC50 came out at 265 µM. `Cc1oc(-c2ccccc2[N+](=O)[O-])nc1C(=O)N(CC(=O)O)Cc1ccccn1` [Example XXII, [{[5-methyl-2-(2-nitrophenyl)-1,3-oxazol-4-yl]carbonyl}(pyridin-2-ylmethyl)amino]acetic Acid]: it took 141 µM to reach half-maximal inhibition (IC50). Compound `Cc1oc(-c2cccc([N+](=O)[O-])c2)nc1C(=O)N(CC(=O)O)Cc1ccccn1` [Example XXIII, [{[5-methyl-2-(3-nitrophenyl)-1,3-oxazol-4-yl]carbonyl}(pyridin-2-ylmethyl)amino]acetic Acid] returned an IC50 of 3.8 µM. Moreover, the “Inhibition of RfaE biochemical activity (FIG. 1)” value (dose-response, FIG. 1) was “Dose Dependent Inhibition”.
